Data: the supplement of paper PMC10307832

Experiments:
Assay in all cases: relative viability (nuclei count vs DMSO), 5 days (fraction); higher = more cells survive
SK-LU-1 = test system: SK-LU-1
In short: (§1)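 Lung cancer cell lines were pin-tool dosed in 1536-well plates on the day after seeding, with either a lone drug or a fixed anchor-drug dose plus five library-drug doses (not always all listed) in √10 steps. Nuclei were counted on 4× images after 5 days. Relative viability is the ratio of treated-well to vehicle-well nuclei counts, with each value a median of duplicate plates.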

ChaGo-K-1 = test system: ChaGo-K-1
In short: as §1

LU99A = test system: LU99A
In short: as §1

UMC-11 = test system: UMC-11
In short: as §1

NCI-H2405 = test system: NCI-H2405
In short: as §1

LCLC-97TM1 = test system: LCLC-97TM1
In short: as §1

NCI-H2228 = test system: NCI-H2228
In short: as §1

LK-2 = test system: LK-2
In short: as §1

NCI-H522 = test system: NCI-H522
In short: as §1

NCI-H1355 = test system: NCI-H1355
In short: as §1

HCC-827 = test system: HCC-827
In short: as §1

NCI-H1993 = test system: NCI-H1993
In short: as §1

PC-3 [JPC-3] = test system: PC-3 [JPC-3]
In short: as §1

H3255 = test system: H3255
In short: as §1

NCI-H3122 = test system: NCI-H3122
In short: as §1

LXF-289 = test system: LXF-289
In short: as §1

NCI-H441 = test system: NCI-H441
In short: as §1

EKVX = test system: EKVX
In short: as §1

NCI-H2170 = test system: NCI-H2170
In short: as §1

NCI-H1650 = test system: NCI-H1650
In short: as §1

EPLC-272H = test system: EPLC-272H
In short: as §1

HOP-62 = test system: HOP-62
In short: as §1

SW 1573 = test system: SW 1573
In short: as §1

CCNC(=O)c1noc(-c2cc(C(C)C)c(O)cc2O)c1-c1ccc(CN2CCOCC2)cc1 [Luminespib] + Cc1cc(Nc2cc(N3CCN(C)CC3)nc(Sc3ccc(NC(=O)C4CC4)cc3)n2)n[nH]1 [Tozasertib] (partner 0.1 µM)
relative viability (SK-LU-1; first compound 0.002 µM): 0.373 | relative viability (SK-LU-1; first compound 0.006325 µM): 0.313 | relative viability (SK-LU-1; first compound 0.02 µM): 0.292 | relative viability (SK-LU-1; first compound 0.06325 µM): 0.122 | relative viability (SK-LU-1; first compound 0.2 µM): 0.114 | relative viability (ChaGo-K-1; first compound 0.002 µM): 0.23 | relative viability (ChaGo-K-1; first compound 0.006325 µM): 0.228 | relative viability (ChaGo-K-1; first compound 0.02 µM): 0.159 | relative viability (ChaGo-K-1; first compound 0.06325 µM): 0.186 | relative viability (ChaGo-K-1; first compound 0.2 µM): 0.201 | relative viability (LU99A; first compound 0.002 µM): 0.261 | relative viability (LU99A; first compound 0.006325 µM): 0.277 | relative viability (LU99A; first compound 0.02 µM): 0.252 | relative viability (LU99A; first compound 0.06325 µM): 0.176 | relative viability (LU99A; first compound 0.2 µM): 0.139 | relative viability (UMC-11; first compound 0.002 µM): 0.211 | relative viability (UMC-11; first compound 0.006325 µM): 0.191 | relative viability (UMC-11; first compound 0.02 µM): 0.194 | relative viability (UMC-11; first compound 0.06325 µM): 0.242 | relative viability (UMC-11; first compound 0.2 µM): 0.196 | relative viability (NCI-H2405; first compound 0.002 µM): 0.812 | relative viability (NCI-H2405; first compound 0.006325 µM): 0.575 | relative viability (NCI-H2405; first compound 0.02 µM): 0.808 | relative viability (NCI-H2405; first compound 0.06325 µM): 0.34 | relative viability (NCI-H2405; first compound 0.2 µM): 0.152 | relative viability (LCLC-97TM1; first compound 0.002 µM): 0.198 | relative viability (LCLC-97TM1; first compound 0.006325 µM): 0.268 | relative viability (LCLC-97TM1; first compound 0.02 µM): 0.117 | relative viability (LCLC-97TM1; first compound 0.06325 µM): 0.241 | relative viability (LCLC-97TM1; first compound 0.2 µM): 0.214 | relative viability (NCI-H2228; first compound 0.002 µM): 0.353 | relative viability (NCI-H2228; first compound 0.006325 µM): 0.274 | relative viability (NCI-H2228; first compound 0.02 µM): 0.139 | relative viability (NCI-H2228; first compound 0.06325 µM): 0.101 | relative viability (NCI-H2228; first compound 0.2 µM): 0.136 | relative viability (LK-2; first compound 0.002 µM): 0.184 | relative viability (LK-2; first compound 0.006325 µM): 0.194 | relative viability (LK-2; first compound 0.02 µM): 0.154 | relative viability (LK-2; first compound 0.06325 µM): 0.208 | relative viability (LK-2; first compound 0.2 µM): 0.182 | relative viability (NCI-H522; first compound 0.002 µM): 0.621 | relative viability (NCI-H522; first compound 0.006325 µM): 0.545 | relative viability (NCI-H522; first compound 0.02 µM): 0.512 | relative viability (NCI-H522; first compound 0.06325 µM): 0.584 | relative viability (NCI-H522; first compound 0.2 µM): 0.512 | relative viability (NCI-H1355; first compound 0.002 µM): 0.518 | relative viability (NCI-H1355; first compound 0.006325 µM): 0.577 | relative viability (NCI-H1355; first compound 0.02 µM): 0.421 | relative viability (NCI-H1355; first compound 0.06325 µM): 0.618 | relative viability (NCI-H1355; first compound 0.2 µM): 0.226 | relative viability (HCC-827; first compound 0.002 µM): 0.425 | relative viability (HCC-827; first compound 0.006325 µM): 0.465 | relative viability (HCC-827; first compound 0.02 µM): 0.398 | relative viability (HCC-827; first compound 0.06325 µM): 0.41 | relative viability (HCC-827; first compound 0.2 µM): 0.193 | relative viability (NCI-H1993; first compound 0.002 µM): 0.539 | relative viability (NCI-H1993; first compound 0.006325 µM): 0.6 | relative viability (NCI-H1993; first compound 0.02 µM): 0.533 | relative viability (NCI-H1993; first compound 0.06325 µM): 0.5 | relative viability (NCI-H1993; first compound 0.2 µM): 0.437 | relative viability (PC-3 [JPC-3]; first compound 0.002 µM): 0.892 | relative viability (PC-3 [JPC-3]; first compound 0.006325 µM): 0.845 | relative viability (PC-3 [JPC-3]; first compound 0.02 µM): 0.801 | relative viability (PC-3 [JPC-3]; first compound 0.06325 µM): 0.656 | relative viability (PC-3 [JPC-3]; first compound 0.2 µM): 0.375 | relative viability (H3255; first compound 0.002 µM): 0.7 | relative viability (H3255; first compound 0.006325 µM): 0.69 | relative viability (H3255; first compound 0.06325 µM): 0.7 | relative viability (H3255; first compound 0.2 µM): 0.25 | relative viability (NCI-H3122; first compound 0.002 µM): 0.451 | relative viability (NCI-H3122; first compound 0.006325 µM): 0.39 | relative viability (NCI-H3122; first compound 0.02 µM): 0.106 | relative viability (NCI-H3122; first compound 0.06325 µM): 0.0834 | relative viability (NCI-H3122; first compound 0.2 µM): 0.0832 | relative viability (LXF-289; first compound 0.002 µM): 0.225 | relative viability (LXF-289; first compound 0.006325 µM): 0.216 | relative viability (LXF-289; first compound 0.02 µM): 0.222 | relative viability (LXF-289; first compound 0.06325 µM): 0.141 | relative viability (LXF-289; first compound 0.2 µM): 0.0935 | relative viability (NCI-H441; first compound 0.002 µM): 0.671 | relative viability (NCI-H441; first compound 0.006325 µM): 0.507 | relative viability (NCI-H441; first compound 0.02 µM): 0.647 | relative viability (NCI-H441; first compound 0.06325 µM): 0.186 | relative viability (NCI-H441; first compound 0.2 µM): 0.148 | relative viability (EKVX; first compound 0.002 µM): 0.436 | relative viability (EKVX; first compound 0.006325 µM): 0.389 | relative viability (EKVX; first compound 0.06325 µM): 0.346 | relative viability (EKVX; first compound 0.2 µM): 0.165 | relative viability (NCI-H2170; first compound 0.002 µM): 0.72 | relative viability (NCI-H2170; first compound 0.006325 µM): 0.737 | relative viability (NCI-H2170; first compound 0.02 µM): 0.398 | relative viability (NCI-H2170; first compound 0.06325 µM): 0.299 | relative viability (NCI-H2170; first compound 0.2 µM): 0.158 | relative viability (NCI-H1650; first compound 0.002 µM): 0.412 | relative viability (NCI-H1650; first compound 0.006325 µM): 0.455 | relative viability (NCI-H1650; first compound 0.02 µM): 0.168 | relative viability (NCI-H1650; first compound 0.06325 µM): 0.153 | relative viability (NCI-H1650; first compound 0.2 µM): 0.145 | relative viability (EPLC-272H; first compound 0.002 µM): 0.282 | relative viability (EPLC-272H; first compound 0.006325 µM): 0.296 | relative viability (EPLC-272H; first compound 0.06325 µM): 0.399 | relative viability (EPLC-272H; first compound 0.2 µM): 0.22 | relative viability (HOP-62; first compound 0.002 µM): 0.363 | relative viability (HOP-62; first compound 0.006325 µM): 0.352 | relative viability (HOP-62; first compound 0.02 µM): 0.403 | relative viability (HOP-62; first compound 0.06325 µM): 0.389 | relative viability (HOP-62; first compound 0.2 µM): 0.232 | relative viability (SW 1573; first compound 0.002 µM): 0.199 | relative viability (SW 1573; first compound 0.006325 µM): 0.175 | relative viability (SW 1573; first compound 0.02 µM): 0.173 | relative viability (SW 1573; first compound 0.06325 µM): 0.113 | relative viability (SW 1573; first compound 0.2 µM): 0.0892
